Measured values taken from patent US10352935B2, “Tumor cell-derived microvesicles” (The Hospital for Sick Children, priority 2007, dated 2019).

What was measured:
[1] = tested on: Erk1/2 phosphorylation in U373 cells; assay: Microvesicle transfer assay, Erk1/2 phosphorylation in U373 acceptor cells; type: cell-based, human; details: microvesicles preincubated with agent, 24 hours (FIG. 3A, 3B)
Method: (§1) U373 (acceptor) cells are treated with microvesicles for 24 hours and a single-cell suspension is analyzed by flow cytometry or fluorescent microscopy for expression of EGFRvIII or GFP. […] The expression of microvesicle associated molecules (EGFRvIII, TF), and expression of total and activated MAPK and Akt as well as other changes are assayed by immunoblot (BcIxL, p27/Kip1), ELISA (VEGF, R&D Systems), or promoter activity assays (VEGF), as described elsewhere (Lopez-Ocejo et al. 2000, Oncogene, 40:4611-4620): For soft agar colony formation assays single cell suspensions are prepared in 0.3% agarose from equal numbers of cells pretreated with microvesicles or control media. Cultures are established in plates precoated with 0.5% agarose and all colonies containing more than 4 cells are counted.

U373vIII tumours = assay: Growth of U373vIII subcutaneous tumours in SCID mice under daily CI-1033; type: in vivo
Description: U373 (human astrocytoma) cells, their stable variant U373vIII expressing Tet-off regulated EGFRvIII or EGFRvIII fused at C-terminus to green fluorescent protein (pEGFPN1) cassette (U373vIII-GFP) and A431 are maintained as described previously (Viloria-Petit et at Am. J. Pathology, 1997, 6:1523-1530; Yu et al., 2005, Blood, 105: 1734-1741) in medium containing microvesicle-depleted fetal bovine serum FBS. HUVEC cells are maintained in EGM-2 (Cambrex Bioscience, Walkesville, Md., USA). Microvesicles are collected from conditioned media or mouse plasma, as previously described (Yu & Rak, J. Thromb. Haemost, 2004, 2:2065-67; Al-Nedawi et al., 2005, Arterioscler. Thromb. Vasc. Biol., 25: 1744-1749). Briefly, media are subjected to two successive centrifugations at 300 g and 12000 g to eliminate cells and debris. Microvesicles are pelleted by ultracentrifugation for 2 hours at 100 000 g and quantified by protein content and analyzed for EGFR or EGFRvIII content. For scanning electron microscopy (SEM) the cells are grown on cover slips, fixed with 2.5% gluteraldehyde, stained with 1% OsO4, covered with gold and visualized using the JEOL 840A instrument. For in vivo analyses tumors are generated by injection of 1-10×10^6 U373vIII or U373 cells into immunodeficient (SCID) mice (Charles River, Canada). […]

[2] = tested on: VEGF production by U373 cells; assay: Microvesicle transfer assay, VEGF production by U373 cells (ELISA); type: cell-based, human; details: microvesicles preincubated with CI-1033 (FIG. 4A)
Method: as §1

A431 tumours = assay: Growth of A431 subcutaneous tumours in mice under daily CI-1033; type: in vivo; details: 20 mg/kg intraperitoneally, 7 days (FIG. 13A)
[3] = tested on: BcIxL and p27/Kip1 expression in U373 cells; assay: Microvesicle transfer assay, BcIxL and p27/Kip1 expression in U373 cells (immunoblot); type: cell-based, human; details: annexin V-mediated blockade of microvesicle uptake
Method: as §1

[4] = tested on: Akt phosphorylation in U373 cells; assay: Microvesicle transfer assay, Akt phosphorylation in U373 acceptor cells; type: cell-based, human; details: microvesicles preincubated with annexin V (FIG. 3C)
Method: as §1

[5] = tested on: VEGF promoter activity in U373 cells; assay: Microvesicle transfer assay, VEGF promoter activity in U373 cells; type: cell-based, human; details: microvesicles pretreated with annexin V (FIG. 4B)
Method: as §1

C=CC(=O)Nc1cc2c(Nc3ccc(F)c(Cl)c3)ncnc2cc1OCCCN1CCOCC1 [CI-1033]
Erk1/2 phosphorylation induced by U373vIII-derived microvesicles [1]: markedly reduced | Formation/growth of U373vIII subcutaneous tumors (U373vIII tumours; SCID mice, daily doses of CI-1033 (FIG. 1D)): susceptible to inhibition | Tumour response (tumour size) (U373vIII tumours; U373vIII tumours, 20 mg/kg intraperitoneally, daily, 7 days (FIG. 13A)): responsive | Release of VEGF induced by U373vIII microvesicles [2]: unable to induce this release of VEGF | Tumour response (tumour size) (A431 tumours): responsive

annexin V: blocks exposed phosphatidylserine residues of microvesicles and thereby their uptake by U373 cells
Decrease in levels of p27/Kip1 caused by EGFRvIII-containing microvesicles [3]: inhibited | Increase in expression of BcIxL caused by EGFRvIII-containing microvesicles [3]: inhibited | Akt phosphorylation induced by U373vIII-derived microvesicles [4]: inhibitable | VEGF promoter activity stimulated by EGFRvIII containing microvesicles [5]: abrogated | Erk1/2 phosphorylation induced by U373vIII-derived microvesicles [1]: abrogated
